Here are results for 2 molecules from patent publication US20130288989A1, “NEW USE OF CHEMICAL INGREDIENTS IN CYNOMORIUM AS PHYTOESTROGEN” (TIANJIN UNIVERSITY OF TRADITIONAL CHINESE MEDICINE, priority 2010, published 2013).

What all share (type): cell-based
Assay [1] concerns the target T1, ERα (Homo sapiens, UniProt P03372).
T1 construct: expressed in transfected cells; host or cells: Hela cells (ER expression free)
T1 sequence (P03372 1-595): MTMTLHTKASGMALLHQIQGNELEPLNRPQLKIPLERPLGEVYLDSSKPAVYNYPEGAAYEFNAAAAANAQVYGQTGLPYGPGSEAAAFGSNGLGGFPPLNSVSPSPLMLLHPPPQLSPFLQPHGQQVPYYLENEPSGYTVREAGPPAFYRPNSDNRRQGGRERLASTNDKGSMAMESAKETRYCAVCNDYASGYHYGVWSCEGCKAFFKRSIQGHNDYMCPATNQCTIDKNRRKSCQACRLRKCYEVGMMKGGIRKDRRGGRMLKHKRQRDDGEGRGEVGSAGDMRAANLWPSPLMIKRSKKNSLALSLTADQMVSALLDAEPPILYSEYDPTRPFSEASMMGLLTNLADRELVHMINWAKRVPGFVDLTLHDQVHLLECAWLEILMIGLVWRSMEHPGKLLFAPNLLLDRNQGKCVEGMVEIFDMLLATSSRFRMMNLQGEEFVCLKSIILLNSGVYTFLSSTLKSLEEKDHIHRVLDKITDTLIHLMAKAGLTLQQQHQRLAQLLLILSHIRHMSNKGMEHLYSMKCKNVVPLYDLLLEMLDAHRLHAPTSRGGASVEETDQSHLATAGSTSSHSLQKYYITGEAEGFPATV
The assay is described as follows: ERα luciferase reporter gene transcription activation in transfected Hela cells. To be noted: for ERα (% of the control) mean ± S.D. / ERα (% of estradiol): Hela cells; for ERα (% of the control) mean ± S.D.: 24 h; for ERα (% of estradiol): estradiol at 10^−8M. An excerpt:
(§1) Actually, estrogens show their biological activity by regulating estrogen responding genetic transcription.
(§2) Formulation of sample solutions of catechin, (−)epicatechin-3-O-gallate, naringenin-4′-O-glucoside, phlorizin, emodin, chrysophanol (separately obtained from Example 1):
(§3) Catechin, (−)epicatechin-3-O-gallate, naringenin-4′-O-glucoside, phlorizin, emodin, chrysophanol in corresponding weights were separately weighed precisely, than added with DMSO for dissolution, the corresponding sample solution high dose groups (10 μM or 1 μM), were diluted in certain times to separately obtain low dose groups (1 μM to 0.001 μM).
(§4) Under condition of 37° C. and 5% CO2, Hela cells were cultured in phenol red-free high sugar DMEM culture medium containing 10% calf serum in incubator, the cells were spread in 60% density on 96-well plate when cell density was about 90%, each well was added with 150 ul of phenol red-free DMEM culture medium containing 10% serum, cultivation was performed overnight. To each well of the 96-well plate, 100 ul of serum-free DMEM culture medium and 0.4 μg plasmid (ptk-ERE-luc 2 μg, tk-Renila 1 μg, ERα or ERβ 1 μg) were used for transfection. After 6 h of transfection, each well was added with 150 ul of serum-free phenol red-free DMEM culture medium. Three wells were selected form each group, added with 10^−8M estradiol E2, and substance to be tested in different concentrations, 15 ul/well (sample 4-5 concentration gradient groups), continuously cultured under condition of 37° C., 5% CO2 for 24 h. After 24 h, each well was added with 80 μl of cell disruption solution, and the cells were subjected to freeze thawing once to be sufficiently disrupted. As for the cell lysis solution of each well, its activities to firefly luciferase and Renila luciferase were separately measured.

Assay [2] deals with T2, ERβ (Homo sapiens, UniProt Q92731).
T2 construct: expressed in transfected cells; host or cells: Hela cells (ER expression free)
The assay is described as follows: ERβ luciferase reporter gene transcription activation in transfected Hela cells. To be noted: for ERβ (% of the control) mean ± S.D. / ERβ (% of estradiol): Hela cells; for ERβ (% of the control) mean ± S.D.: 24 h; for ERβ (% of estradiol): estradiol at 10^−8M.
Source text: as §1, §2, §3, §4
(Reporter assays use an easily measured gene product as a stand-in for the process of interest.)

The test system of assay [3] is estrogen receptor. The assay is described as follows: Estrogen receptor activation test: overall estrogen activity and ERβ versus ERα comparison. To be noted: for ERβ/ERα (both % of estradiol at 10^−8M): Hela cells. The protocol: as §1, §4

Entries after “also recorded” stand apart in the source; their conditions may differ.

T2 sequence (Q92731 whole entry): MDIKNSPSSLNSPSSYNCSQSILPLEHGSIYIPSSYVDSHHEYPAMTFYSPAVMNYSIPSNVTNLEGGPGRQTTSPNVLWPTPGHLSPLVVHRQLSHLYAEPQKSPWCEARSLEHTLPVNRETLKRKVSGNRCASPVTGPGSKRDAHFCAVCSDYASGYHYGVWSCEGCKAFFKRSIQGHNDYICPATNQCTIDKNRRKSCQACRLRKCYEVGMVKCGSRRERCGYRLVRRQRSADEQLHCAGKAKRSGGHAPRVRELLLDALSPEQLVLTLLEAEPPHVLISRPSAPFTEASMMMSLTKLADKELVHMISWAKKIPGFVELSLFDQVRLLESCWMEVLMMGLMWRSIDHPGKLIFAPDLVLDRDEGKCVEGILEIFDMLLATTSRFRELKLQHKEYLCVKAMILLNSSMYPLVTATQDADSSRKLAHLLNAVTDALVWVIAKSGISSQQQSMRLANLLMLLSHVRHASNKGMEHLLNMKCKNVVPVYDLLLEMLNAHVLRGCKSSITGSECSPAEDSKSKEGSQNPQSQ

As for catechin, the “ERα (% of the control) mean ± S.D.” value in assay [1] (10^−5 M) is reported as 128.00 ± 8.74 % of the control; in assay [1] (10^−6 M), 108.85 ± 8.87 % of the control; in assay [1] (10^−7 M), 106.72 ± 12.84 % of the control; in assay [1] (10^−8 M), 102.89 ± 10.21 % of the control. In addition, the “ERα (% of estradiol)” value is listed as “(60.23) % of estradiol” in assay [1] (10^−5 M), “(51.22) % of estradiol” in assay [1] (10^−6 M), “(50.22) % of estradiol” in assay [1] (10^−7 M) and “(48.42) % of estradiol” in assay [1] (10^−8 M). The “concentration at which the transcriptional activity of ERα is agonized” value in assay [1] (luciferase reporter gene) is listed as 10^−5 M. The “ERβ (% of the control) mean ± S.D.” value in assay [2] (10^−5 M) is 115.59 ± 13.39 % of the control; in assay [2] (10^−6 M) it was 103.71 ± 9.07 % of the control; in assay [2] (10^−7 M) it was 102.57 ± 1.04 % of the control; in assay [2] (10^−8 M), 101.93 ± 2.27 % of the control. Also, the “ERβ (% of estradiol)” value is given as “(59.86) % of estradiol” in assay [2] (10^−5 M), “(53.71) % of estradiol” in assay [2] (10^−6 M), “(53.12) % of estradiol” in assay [2] (10^−7 M) and “(52.79) % of estradiol” in assay [2] (10^−8 M). Further, the “concentration at which the transcriptional activity of ERβ is agonized” value in assay [2] (luciferase reporter gene) was 10^−5 M. Moreover, the “ERβ/ERα (both % of estradiol at 10^−8M)” value in assay [3] (sample 10^−5 M) is reported as 1.28; in assay [3] (sample 10^−6 M) it was 1.05; in assay [3] (sample 10^−7 M), 1.06; in assay [3] (sample 10^−8 M), 1.09. Besides, the “estrogen activity / estrogen receptor activation (in words)” value in assay [3] (estradiol as positive control) is “show relevance to estrogen receptor activation; also recorded: potent activity of estrogen”. The “selectivity to receptor subtypes (ERα vs ERβ)” value in assay [3] (result in words) is “no significant selectivity to receptor subtypes”.
`Cc1cc(O)c2c(c1)C(=O)c1cccc(O)c1C2=O` [Chrysophanol, chrysophanol]: the “ERα (% of the control) mean ± S.D.” value in assay [1] (10^−6 M) is on record as 122.89 ± 8.94 % of the control; in assay [1] (10^−7 M), 97.77 ± 8.47 % of the control; in assay [1] (10^−8 M) it was 80.15 ± 13.88 % of the control; in assay [1] (10^−9 M), 84.53 ± 14.21 % of the control. Also, the “ERα (% of estradiol)” value in assay [1] (10^−6 M) is reported as “(51.51) % of estradiol”; in assay [1] (10^−7 M), “(40.98) % of estradiol”; in assay [1] (10^−8 M), “(33.59) % of estradiol”; in assay [1] (10^−9 M), “(35.43) % of estradiol”. Also, the “ERβ (% of the control) mean ± S.D.” value in assay [2] (10^−6 M) is 120.43 ± 12.98 % of the control; in assay [2] (10^−7 M), 83.12 ± 4.78 % of the control; in assay [2] (10^−8 M), 76.85 ± 8.82 % of the control; in assay [2] (10^−9 M), 86.99 ± 23.16 % of the control. The “ERβ (% of estradiol)” value in assay [2] (10^−6 M) is “(61.26) % of estradiol”; in assay [2] (10^−7 M) it was “(42.28) % of estradiol”; in assay [2] (10^−8 M), “(39.09) % of estradiol”; in assay [2] (10^−9 M), “(44.25) % of estradiol”. Besides, the “ERβ/ERα (both % of estradiol at 10^−8M)” value in assay [3] (sample 10^−6 M) is 1.19; in assay [3] (sample 10^−7 M), 1.03; in assay [3] (sample 10^−8 M) it was 1.16; in assay [3] (sample 10^−9 M), 1.25.
